How the values were obtained:
blackgrass [1] = experiment: Test A preemergence; format: in vivo, Alopecurus myosuroides; conditions: Alopecurus myosuroides, pre-emergence, 240 h, read-out: Plant response rating, Blackgrass
In short: (§1)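 Plants were grown in loam and sand and treated preemergence or postemergence (one- to two-leaf stage, 2–10 cm) with compound in solvent plus surfactant. Response was scored against untreated controls after 10 greenhouse days, where 0 means no effect and 100 complete control.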

goosegrass [2] = experiment: Test A preemergence; format: in vivo, Eleusine indica; conditions: Eleusine indica, pre-emergence, 240 h, read-out: Plant response rating, Goosegrass
In short: as §1

kochia = experiment: Test A preemergence; format: in vivo, Bassia scoparia; conditions: Bassia scoparia, pre-emergence, 240 h, read-out: Plant response rating, Kochia
In short: as §1

pigweed, palmer [3] = experiment: Test A preemergence; format: in vivo, Amaranthus palmeri; conditions: Amaranthus palmeri, pre-emergence, 240 h, read-out: Plant response rating, Pigweed, Palmer
In short: as §1

ryegrass, Italian = experiment: Test A preemergence; format: in vivo, Lolium multiflorum; conditions: Lolium multiflorum, pre-emergence, 240 h, read-out: Plant response rating, Ryegrass, Italian
In short: as §1

soybean = experiment: Test A preemergence; format: in vivo, Glycine max; conditions: Glycine max, pre-emergence, 240 h, read-out: Plant response rating, Soybean
In short: as §1

blackgrass [4] = experiment: Test A postemergence; format: in vivo, Alopecurus myosuroides; conditions: Alopecurus myosuroides, post-emergence, 240 h, read-out: Plant response rating, Blackgrass
In short: as §1

goosegrass [5] = experiment: Test A postemergence; format: in vivo, Eleusine indica; conditions: Eleusine indica, post-emergence, 240 h, read-out: Plant response rating, Goosegrass
In short: as §1

oat, wild = experiment: Test A postemergence; format: in vivo, Avena fatua; conditions: Avena fatua, post-emergence, 240 h, read-out: Plant response rating, Oat, Wild
In short: as §1

pigweed, palmer [6] = experiment: Test A postemergence; format: in vivo, Amaranthus palmeri; conditions: Amaranthus palmeri, post-emergence, 240 h, read-out: Plant response rating, Pigweed, Palmer
In short: as §1

ragweed = experiment: Test A postemergence; format: in vivo, Ambrosia artemisiifolia; conditions: Ambrosia artemisiifolia, post-emergence, 240 h, read-out: Plant response rating, Ragweed
In short: as §1

sedge, umbrella = experiment: Test B flooded paddy test; format: in vivo, Cyperus difformis; conditions: Cyperus difformis, 312 h; 250 g ai/ha, Flood, 13 days, 0 to 100 scale (0 no effect, 100 complete control); read-out: Plant response rating, Sedge, Umbrella
In short: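 2-leaf stage; pots flooded 3 cm over soil; compound dosed into paddy water; depth kept constant. Greenhouse, 13 d. Visual rating vs controls, 0 (no effect)–100 (complete control). Dash = no result.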

[7] = 125 g ai/ha, visual injury after 10 days, 0 to 100 scale, 0 is no effect, 100 is complete control
[8] = 500 g ai/ha, 0 to 100 scale (0 no effect, 100 complete control), 10 days
[9] = 125 g ai/ha, postemergence, 10 days, visual injury, 0 to 100 scale (0 no effect, 100 complete control)
[10] = 500 g ai/ha, Postemergence, 0 to 100 scale

Cc1cccc2c1O[C@@H](C)CN2C(=O)c1cccc(-n2cnc(Br)n2)c1 [Compound 61, [3-(3-Bromo-1H-1,2,4-triazol-1-yl)phenyl][(2S)-2,3-dihydro-2,8-dimethyl-4H-1,4-benzoxazin-4-yl]methanone] was tested, and the pest or weed control at 125 g/ha (blackgrass [1]; [7]) was 50%, the pest or weed control at 500 g/ha (blackgrass [1]; [8]) was 70% and the pest or weed control at 125 g/ha (goosegrass [2]; [7]) was 90%. It also gave a pest or weed control at 500 g/ha (goosegrass [2]; [8]) of 90%, a pest or weed control at 125 g/ha (kochia; [7]) of 20% and a pest or weed control at 500 g/ha (kochia; [8]) of 60%. The pest or weed control at 125 g/ha (pigweed, palmer [3]; [7]) was 60%, the pest or weed control at 500 g/ha (pigweed, palmer [3]; [8]) was 90% and the pest or weed control at 125 g/ha (ryegrass, Italian; [7]) was 90%. For the same compound, the pest or weed control at 500 g/ha (ryegrass, Italian; [8]) was 100%, the plant injury at 125 g/ha (soybean; [7]) was 0% and the plant injury at 500 g/ha (soybean; [8]) was 30%. It also gave a pest or weed control at 125 g/ha (blackgrass [4]; [9]) of 20%, a pest or weed control at 500 g/ha (blackgrass [4]; [10]) of 40% and a pest or weed control at 125 g/ha (goosegrass [5]; [9]) of 10%. It also gave a pest or weed control at 500 g/ha (goosegrass [5]; [10]) of 50%, a pest or weed control at 125 g/ha (oat, wild; [9]) of 10% and a pest or weed control at 500 g/ha (oat, wild; [10]) of 20%. The pest or weed control at 125 g/ha (pigweed, palmer [6]; [9]) was 40%, the pest or weed control at 500 g/ha (pigweed, palmer [6]; [10]) was 50% and the pest or weed control at 125 g/ha (ragweed; [9]) was 30%. For the same compound, the pest or weed control at 500 g/ha (ragweed; [10]) was 40% and the pest or weed control at 250 g/ha (sedge, umbrella) was 45%.

Reference: patent publication US20260262643A1, “HERBICIDAL BENZOXAZINES” (FMC CORPORATION, priority 2022, published 2026)
